Patent US20040037806A1, “Aldosterone blocker therapy to prevent or treat inflammation-related disorders” (Pharmacia Corporation, priority 2002, published 2004)
Entries after “also recorded” stand apart in the source; their conditions may differ.

Columns and labels:
Format in all cases: in vivo, rat
[1] = tested on: Monocyte Chemoattractant Protein-1 (MCP-1); experiment: Assay C: MCP-1 mRNA, TaqMan; settings: 7, 14, 30 days; aldosterone+salt alone or with eplerenone 100 mg/kg/day
Description: (§1) The procedure of Assay B was expanded upon in a further study. […] Myocardial tissue from animals in each treatment group was examined after 7, 14, or 30 days of treatment.
(§2) Potassium chloride supplementation was added to the saline solution in order to prevent the potential hypokalemia associated with aldosterone excess.
(§3) Treatment At the time of the surgery, an Alzet 2002 osmotic minipump (Alza Corp., Palo Alto, Calif.) containing either vehicle (9% ethanol/87% propylene glycol/4% dH2O) or 1.0 mg/mL d-aldosterone (Sigma Chemical, St. Louis, Mo.) was inserted subcutaneously at the nape of the neck. Aldosterone was administered at a dose of 0.75 µg/hour. […]
(§4) The fluorogenic 5′-nuclease assay (TaqMan PCR) using Applied Biosystems' 7700 Sequence Detection System (Applied Biosystems, Foster City, Calif.) allowed for real time detection/quantitation of a specific gene by monitoring the increase in fluorescence of a gene-specific, dye-labeled oligonucleotide probe. […] When the probe was annealed to the target gene, fluorescence of 6FAM was prevented by the close proximity of TAMRA. The exonuclease activity of Taq polymerase released the dyes from the oligonucleotide probe by displacing the probe from the target sequence resulting in fluorescence excitation in direct proportion to the amount of target message present. […]

[2] = tested on: Vascular Cell Adhesion Molecule-1 (VCAM-1); experiment: Assay C: VCAM-1 mRNA, TaqMan; settings: aldosterone+salt alone or with eplerenone 100 mg/kg/day; increase at day 30 did not reach statistical significance
Description: as §1, §2, §3, §4

[3] = Assay B: aldosterone infusion model, systolic blood pressure by radio-telemetry; settings: uni-nephrectomized Sprague Dawley rats, 1% NaCl, aldosterone 0.75 mg/hr sc, 4 weeks, eplerenone 100 mpk p.o
Description: (§5) Assay B: In Vivo Aldosterone Infusion Model
(§6) Male Sprague Dawley rats (n=39; BW=250 g)
Uni-nephrectomy performed during implantation of mini-pumps
2. Aldosterone (0.75 mg/hr, sc via alzet minipump)
1. Aldosterone (0. 75 mg/hr, sc via alzet minipump)+0.6% KCl in the drinking fluid
Groups 1, 2 and 3 received only 0.3% KCl in the drinking solution
SBP measured by radio-telemetry probes inserted in the abdominal aorta

[4] = Assay B: aldosterone infusion model, heart histology, vascular inflammatory lesions and myocardial injury; settings: aldosterone-infused, saline-drinking, uni-nephrectomized Sprague Dawley rats, 4 weeks; eplerenone 100 mpk p.o; 0.6% KCl in the drinking fluid
Description: as §5, §6
→ Hearts were harvested and divided by half through a transverse section at the mid-ventricles: The upper half was stored into formalin. The bottom part was snap-frozen in liquid nitrogen for biochemical analysis.
Hearts were stained with hematoxylin&eosin and the collagen specific dye picro-sirius red and were analyzed for determination of interstitial collagen volume fraction and morphologic abnormalities (i.e. necrosis, vascular injury).

For `COC(=O)[C@@H]1CC2=CC(=O)CC[C@]2(C)[C@@]23O[C@@H]2C[C@@]2(C)[C@@H](CC[C@@]24CCC(=O)O4)[C@H]13` [eplerenone], the “MCP-1 mRNA expression in myocardium” value [1] was “significantly reduced; also recorded: inhibition of early time-course expression of myocardial MCP-1”, the “VCAM-1 gene expression in myocardium” value [2] was “significantly reduced; also recorded: inhibition of early time-course expression of myocardial ICAM-1 and VCAM-1” and the Systolic blood pressure [3] was “depression of this elevation”. The Systolic blood pressure ([3]; listed as Eplerenone) was “significantly reduced, but did not normalize blood pressure” and the “Vascular inflammatory lesions / myocardial injury (hematoxylin-eosin)” value [4] was “completely prevented the vascular inflammatory changes; also recorded: prevention by eplerenone of myocardial injury”.
For `C[C@]12CCC(=O)C=C1CC[C@@H]1[C@@H]2[C@@H](O)C[C@]2(C=O)[C@@H](C(=O)CO)CC[C@@H]12` [aldosterone], the “MCP-1 mRNA expression in myocardium” value [1] was “significantly increased”, the “VCAM-1 gene expression in myocardium” value [2] was “increased two-fold at day 30” and the Systolic blood pressure [3] was “increased; also recorded: systolic blood pressure elevation”. The “Vascular inflammatory lesions / myocardial injury (hematoxylin-eosin)” value [4] was “severe vascular inflammatory lesions”.
